Test results as given in publication PMC7560827, “Immunodominant proteins P1 and P40/P90 from human pathogen Mycoplasma pneumoniae” (Nature Communications, 2020).

Assays:
P40/P90N [1] = target: T1, P40/P90N (Mycoplasmoides pneumoniae, UniProt Q50341)
T1 construct: gene orf6

P40/P90N [2] = target: T1, P40/P90N; remark: listed apart in the source

SMILES | X-ray crystal structure, 2.8 Å (P40/P90N [1]) | X-ray crystal structure, 3.2 Å (P40/P90N [2])
CC(=O)N[C@H]1[C@H]([C@H](O)[C@H](O)CO)O[C@@](OC[C@H]2O[C@@H](O[C@H]3[C@H](O)[C@@H](O)C(O)O[C@@H]3CO)[C@H](O)[C@@H](O)[C@H]2O)(C(=O)O)C[C@@H]1O (some centres unmarked) [6SL] | 6TM0 for the 6SL complex | –
CC(=O)N[C@H]1[C@H]([C@H](O)[C@H](O)CO)O[C@@](O[C@H]2[C@@H](O)[C@@H](CO)O[C@@H](O[C@H]3[C@H](O)[C@@H](O)C(O)O[C@@H]3CO)[C@@H]2O)(C(=O)O)C[C@@H]1O (some centres unmarked) [3SL] | – | 6TLZ for the 3SL complex
